From patent US12497359B2, “Acrylamide derivatives” (NRG Therapeutics Ltd, priority 2020, dated 2025)

System: mPTP
Assay: mPTP human platelet mitochondria membrane potential flow cytometry assay
Assay type: cell-based
Details: stimulated human platelets
Procedure: The mPTP cell based assay was performed using a mitochondria membrane potential flow cytometry assay in stimulated human platelets. Simulation of platelets results in the rapid influx of Ca^2+ across the platelet membrane. The Ca^2+ is then sequestered by mitochondria until the threshold for mPTP opening is reached, at which point the pore opens and the mitochondrial membrane potential is dissipated. Changes in mitochondria membrane potential due to mPTP opening can be quantified in live platelets using standard mitochondrial membrane potential dyes e.g. 3,3′-dihexyloxacarbocyanine Iodide; DiOC6 (3), enabling pharmacological characterisation of mPTP inhibitors.
Fresh human blood (20 ml) was collected from consented donors into 3.2% sodium citrate. Platelets were isolated by centrifugation at 200 g for 20 min at room temperature, then the platelet rich plasma layer transferred to a fresh tube. Prostaglandin 12 is added to the platelets at a final concentration of 20 ng/ml. After centrifugation at 640 g for 10 min, the platelet rich pellet was resuspended in 4 ml HEPES assay buffer (137 mM NaCl, 2.7 mM KCl, 11.9 mM NaHCO3, 0.42 mM NaH2PO4, 1 mM MgCl2, 5.5 mM glucose, 0.1% bovine serum albumin, 10 mM HEPES adjusted to pH 7.4) and stored on ice.
Test compounds were prepared from 10 mM stocks in DMSO and serially diluted in assay buffer containing 0.4% DMSO and 25 μl transferred into a 96 well plate. Platelets were loaded with the mitochondrial membrane potential dye DiOC6 (3) (3,3′-dihexyloxacarbocyanine Iodide; Invitrogen) at 200 nM for 30 min, then 50 μl plated into each well of the 96 well plate containing diluted test compound and incubated for 15 min. Control wells included DMSO (0.1% final concentration) only or 5 μM cyclosporin A. Platelets were then stimulation with the addition of assay buffer (25 μl) containing CaCl2, alpha thrombin and Convulxin to achieve a final concentrations of 2 mM, 0.017 U/ml and 0.167 μg/ml respectively and incubated for 14 min. The reaction was stopped by the addition of 25 μl 15 mM EDTA in assay buffer. The mitochondrial membrane potential across the population of platelets in each well was then quantified by flow cytometry using a Guava easyCyte 5 Benchtop Flow Cytometer with 3000 events per well. The percentage of platelets with a depolarised mitochondrial membrane potential was calculated for each well. A pIC50 for each compound was then calculated using a standard four parameter curve fit model (GraphPad Prism).

Structure (SMILES) | mPTP Human platelets pIC50
O=C(/C=C/c1ccc2cn[nH]c2c1)N[C@@H]1CCc2ccccc21 [Example 3, (R,E)-N-(2,3-dihydro-1H-inden-1-yl)-3-(1H-indazol-6-yl)acrylamide] | 7.3
C[C@H]1Cc2ccccc2[C@@H]1NC(=O)/C=C/c1ccc2cn[nH]c2c1 (single isomer, unassigned) [Example 14c] | 6.8
